Structures are written as SMILES.

The nature of data set [1]: Cytotoxicity against human TZM-bl cells assessed as reduction in cell viability by CellTitre-Glo assay. It counts as toxicity, cell-based.
Data set [2] deals with Human immunodeficiency virus 1. Kind of data set: Antiviral activity against HIV-1 89.6 infected in human TZM-bl cells assessed as reduction in viral replication. It counts as functional, organism-based. Particulars: Human immunodeficiency virus 1, 89.6, TZM-bl.
Data set [3] can be described thus: Selectivity index, ratio of CC50 for human TZM-bl cells to IC50 for IC50 for antiviral activity against HIV-1 89.6 infected in human TZM-bl cells. It is filed as toxicity, cell-based. Particulars: read-out: Ratio CC50/IC50.
For data set [4], the system named is Human immunodeficiency virus 1. Kind of data set: Antiviral activity against HIV-1 YU2 […] infected in human TZM-bl cells assessed as reduction in viral replication. It is filed as functional, organism-based. Particulars: Human immunodeficiency virus 1, YU2[…].
In data set [5] the test system is Human immunodeficiency virus 1. Kind of data set: Antiviral activity against HIV-1 NL4-3(X4) infected in human TZM-bl cells assessed as reduction in viral replication. It counts as functional, organism-based. Particulars: Human immunodeficiency virus 1, NL4-3(X4).
Data set [6] concerns Human immunodeficiency virus 1. Kind of data set: Synergistic antiviral activity against HIV-1 89.6 infected in human TZM-bl cells assessed as combination index at 45:1 compound and 4E10 antibody ratio. It counts as functional.
Data set [7] concerns Human immunodeficiency virus 1. Kind of data set: Synergistic antiviral activity against HIV-1 89.6 infected in human TZM-bl cells assessed as compound dose reduction index at 45:1 compound and 447-52D antibody ratio. It is filed as functional.
Data set [8] has as its system Human immunodeficiency virus 1. Kind of data set: Synergistic antiviral activity against HIV-1 89.6 infected in human TZM-bl cells assessed as combination index at 45:1 compound and 2G12 antibody ratio. It is filed as functional.
In data set [9] the test system is Human immunodeficiency virus 1. Kind of data set: Synergistic antiviral activity against HIV-1 89.6 infected in human TZM-bl cells assessed as combination index at 45:1 compound and 447-52D antibody ratio. It is filed as functional.
Data set [10] deals with Human immunodeficiency virus 1. Kind of data set: Synergistic antiviral activity against HIV-1 89.6 infected in human TZM-bl cells assessed as combination index at 450:1 compound and b12 antibody ratio. It counts as functional.
The test system of data set [11] is Human immunodeficiency virus 1. Kind of data set: Synergistic antiviral activity against HIV-1 89.6 infected in human TZM-bl cells assessed as compound dose reduction index at 45:1 compound and 2F5 antibody ratio. It is filed as functional.
In data set [12] the test system is Human immunodeficiency virus 1. Kind of data set: Synergistic antiviral activity against HIV-1 89.6 infected in human TZM-bl cells assessed as combination index at 45:1 compound and KD-247 antibody ratio. It counts as functional.
Data set [13] deals with Human immunodeficiency virus 1. Kind of data set: Synergistic antiviral activity against HIV-1 89.6 infected in human TZM-bl cells assessed as combination index at 45:1 compound and 2F5 antibody ratio. It is filed as functional.
The subject of data set [14] is Human immunodeficiency virus 1. Kind of data set: Synergistic antiviral activity against HIV-1 89.6 infected in human TZM-bl cells assessed as compound dose reduction index at 45:1 compound and 4E10 antibody ratio. It is filed as functional.
For data set [15], the system named is Human immunodeficiency virus 1. Kind of data set: Synergistic antiviral activity against HIV-1 89.6 infected in human TZM-bl cells assessed as antibody dose reduction index at 45:1 compound and KD-247 antibody ratio. It is filed as functional.
For data set [16], the system named is Human immunodeficiency virus 1. Kind of data set: Synergistic antiviral activity against HIV-1 89.6 infected in human TZM-bl cells assessed as compound dose reduction index at 45:1 compound and KD-247 antibody ratio. It counts as functional.
Data set [17] concerns Human immunodeficiency virus 1. Kind of data set: Synergistic antiviral activity against HIV-1 89.6 infected in human TZM-bl cells assessed as compound dose reduction index at 45:1 compound and 2G12 antibody ratio. It counts as functional.
Data set [18] concerns Human immunodeficiency virus 1. Kind of data set: Synergistic antiviral activity against HIV-1 89.6 infected in human TZM-bl cells assessed as antibody dose reduction index at 45:1 compound and 2G12 antibody ratio. It counts as functional.
In data set [19] the test system is Human immunodeficiency virus 1. Kind of data set: Synergistic antiviral activity against HIV-1 89.6 infected in human TZM-bl cells assessed as antibody dose reduction index at 45:1 compound and 2F5 antibody ratio. It counts as functional.
The test system of data set [20] is Human immunodeficiency virus 1. Kind of data set: Synergistic antiviral activity against HIV-1 89.6 infected in human TZM-bl cells assessed as antibody dose reduction index at 45:1 compound and 447-52D antibody ratio. It counts as functional.
Data set [21] concerns Human immunodeficiency virus 1. Kind of data set: Synergistic antiviral activity against HIV-1 89.6 infected in human TZM-bl cells assessed as compound dose reduction index at 450:1 compound and b12 antibody ratio. It counts as functional.
The subject of data set [22] is Human immunodeficiency virus 1. Kind of data set: Synergistic antiviral activity against HIV-1 89.6 infected in human TZM-bl cells assessed as antibody dose reduction index at 450:1 compound and b12 antibody ratio. It is filed as functional.
The test system of data set [23] is Human immunodeficiency virus 1. Kind of data set: Synergistic antiviral activity against HIV-1 89.6 infected in human TZM-bl cells assessed as antibody dose reduction index at 45:1 compound and 4E10 antibody ratio. It counts as functional.

As a reminder, the CC50 is the concentration giving 50% cytotoxicity. A word on the IC50: it is the concentration that gives 50% inhibition. Take `CC(C)C[C@H](NC(=O)CCCCCCCNC(=O)[C@]12CCC(C)(C)C[C@H]1C1=CC[C@@H]3[C@@]4(C)CC[C@H](O)C(C)(C)[C@@H]4CC[C@@]3(C)[C@]1(C)CC2)[C@H](O)CC(=O)O`: the CC50 in data set [1] amounted to 26 µM. For the same molecule, the IC50 in data set [2] was 1 µM; in [4], 42 µM; in [5] it was 3.2 µM. In addition, the selectivity ratio in data set [3] came out at 26.

In the case of `C=C(C)[C@@H]1CC[C@]2(C(=O)NCCCCCCCC(=O)N[C@@H](CC(C)C)[C@H](O)CC(=O)O)CC[C@]3(C)[C@H](CC[C@@H]4[C@@]5(C)CC[C@H](O)C(C)(C)[C@@H]5CC[C@]43C)[C@@H]12`, the cytotoxic concentration (CC50) in data set [1] worked out at 8.9 µM. The figures for the IC50 in [2], in data set [4] and in data set [5] were 0.2 µM, 5.8 µM and 0.32 µM, respectively. In addition, the selectivity ratio in data set [3] stood at 45.

Turning to `C=C(C)[C@@H]1CC[C@]2(C(=O)NCCCCCCCC(=O)N[C@@H](CC(C)C)[C@@H](O)CC(=O)O)CC[C@]3(C)[C@H](CC[C@@H]4[C@@]5(C)CC[C@H](O)C(C)(C)[C@@H]5CC[C@]43C)[C@@H]12`, in [1], the half-maximal cytotoxic concentration (CC50) is 17 µM. The IC50 in data set [2] is 0.17 µM; in [4], 80 µM; in data set [5], 0.27 µM. Also, in [3], the selectivity ratio amounted to 100.

For `CC(C)C[C@H](NC(=O)CCCCCCCNC(=O)[C@]12CC[C@@H](C)[C@H](C)[C@H]1C1=CC[C@@H]3[C@@]4(C)CC[C@H](O)C(C)(C)[C@@H]4CC[C@@]3(C)[C@]1(C)CC2)[C@@H](O)CC(=O)O`, in data set [1], the CC50 worked out at 95 µM. In addition, the IC50 turned out to be 3.5 µM in [2], 43 µM in data set [4] and 3.7 µM in data set [5]. Further, the selectivity ratio in data set [3] was found to be 27.

For `CC(C)C[C@H](NC(=O)CCCCCCCNC(=O)[C@]12CCC(C)(C)C[C@H]1C1=CC[C@@H]3[C@@]4(C)CC[C@H](O)C(C)(C)[C@@H]4CC[C@@]3(C)[C@]1(C)CC2)[C@@H](O)CC(=O)O`, the CI in [6] is reported as 0.59; in data set [8], 0.59; in data set [9], 0.59; in data set [10], 0.68; in data set [12], 0.75; in data set [13], 0.69. The Activity_index in data set [7] amounted to 3.8; in data set [11], 4.3; in [14], 2.9; in [15] it was 2.9; in [16] it was 3.3; in data set [17], 4.9. Further, the Activity_index in data set [18] worked out at 3.1; in [19], 2.7; in [20] it was 3.9; in data set [21], 3.2; in data set [22], 3.6; in data set [23], 5.5. In data set [1], the CC50 is 78 µM. In addition, the values for the concentration for half-maximal inhibition (IC50) in [2], in data set [4] and in data set [5] were 0.79 µM, 25 µM and 1.7 µM, respectively. Besides, the selectivity ratio in data set [3] turned out to be 99.

Turning to `CC(C)C[C@H](NC(=O)CCCCCCCNC(=O)[C@@]1(C)CC[C@]2(C)CC[C@]3(C)C(=CC(=O)[C@@H]4[C@@]5(C)CC[C@H](O)C(C)(C)[C@@H]5CC[C@]43C)[C@@H]2C1)[C@@H](O)CC(=O)O`, the CC50 in data set [1] was above 300 µM. The IC50 in [2], in [4] and in data set [5] was above 100 µM in each case.

As for `CC(C)C[C@H](NC(=O)CCCCCCCNC(=O)[C@]12CCC(C)(C)C[C@H]1[C@H]1C(=O)C[C@@H]3[C@@]4(C)CC[C@H](O)C(C)(C)[C@@H]4CC[C@@]3(C)[C@]1(C)CC2)[C@@H](O)CC(=O)O`, the CC50 in data set [1] amounted to 128 µM. Moreover, the IC50 worked out at 0.39 µM in [2], 16 µM in data set [4] and 0.5 µM in [5]. In addition, in data set [3], the selectivity ratio worked out at 328.

On to `CC(C)C[C@H](NC(=O)CCCCCCCNC(=O)[C@@]1(C)CC[C@]2(C)CC[C@]3(C)C(=CC(=O)[C@@H]4[C@@]5(C)CC[C@H](O)C(C)(C)[C@@H]5CC[C@]43C)[C@@H]2C1)[C@H](O)CC(=O)O`, for which the CC50 in data set [1] was above 300 µM. Moreover, the IC50 in [2], in data set [4] and in data set [5] was above 100 µM in each case.

Consider `CC(C)C[C@H](NC(=O)CCCCCCCNC(=O)[C@]12CC[C@@H](C)[C@H](C)[C@H]1C1=CC[C@@H]3[C@@]4(C)CC[C@H](O)C(C)(C)[C@@H]4CC[C@@]3(C)[C@]1(C)CC2)[C@H](O)CC(=O)O`, for which the CC50 in data set [1] was 71 µM. The IC50 is 1.1 µM in data set [2], 40 µM in data set [4] and 3.9 µM in [5]. Further, in [3], the selectivity ratio amounted to 65.

(Values after ChEMBL document CHEMBL5126557, “Design, synthesis, and bio-evaluation of novel triterpenoid derivatives as anti-HIV-1 compounds” (Bioorg Med Chem Lett, 2022).)
